Data reported in the supplement of paper PMC10307832.

Key:
Test in all cases: relative viability (nuclei count vs DMSO), 5 days (fraction); higher = more cells survive
NCI-H2126 = system: NCI-H2126
In short: (§1)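 Relative viability was taken as the ratio of nuclei in treated wells to nuclei in vehicle wells. Lung cancer cell lines in 1536-well plates received compounds by pin tool one day after seeding, either one drug alone or a fixed anchor-drug dose plus five library-drug doses (not always all listed) in √10 steps. Nuclei were counted on 4× images after 5 days of treatment, and values are medians of duplicate plates.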

NCI-H1666 = system: NCI-H1666
In short: as §1

NCI-H322M = system: NCI-H322M
In short: as §1

NCI-H2085 = system: NCI-H2085
In short: as §1

UMC-11 = system: UMC-11
In short: as §1

EMC-BAC-2 = system: EMC-BAC-2
In short: as §1

HCC-78 = system: HCC-78
In short: as §1

NCI-H1755 = system: NCI-H1755
In short: as §1

NCI-H2023 = system: NCI-H2023
In short: as §1

NCI-H1975 = system: NCI-H1975
In short: as §1

EPLC-272H = system: EPLC-272H
In short: as §1

LXF-289 = system: LXF-289
In short: as §1

NCI-H3122 = system: NCI-H3122
In short: as §1

ChaGo-K-1 = system: ChaGo-K-1
In short: as §1

NCI-H358 = system: NCI-H358
In short: as §1

NCI-H1993 = system: NCI-H1993
In short: as §1

CAL-12T = system: CAL-12T
In short: as §1

ABC-1 = system: ABC-1
In short: as §1

NCI-H1915 = system: NCI-H1915
In short: as §1

HOP-62 = system: HOP-62
In short: as §1

COR-L 105 = system: COR-L 105
In short: as §1

NCI-H441 = system: NCI-H441
In short: as §1

HCC-15 = system: HCC-15
In short: as §1

With Clc1ccc(Nc2nnc(Cc3ccncc3)c3ccccc23)cc1 [Vatalanib] + COc1cc2c(Oc3ccc(NC(=O)C4(C(=O)Nc5ccc(F)cc5)CC4)cc3F)ccnc2cc1OCCCN1CCOCC1 [Foretinib] (partner 0.25 µM) the relative viability (NCI-H2126; first compound 0.04 µM) was 1.15, the relative viability (NCI-H2126; first compound 0.1265 µM) was 1.23 and the relative viability (NCI-H2126; first compound 0.4 µM) was 1.25. The relative viability (NCI-H2126; first compound 1.265 µM) was 1.1, the relative viability (NCI-H2126; first compound 4 µM) was 1.12 and the relative viability (NCI-H1666; first compound 0.04 µM) was 1. The relative viability (NCI-H1666; first compound 0.1265 µM) was 1.02, the relative viability (NCI-H1666; first compound 0.4 µM) was 0.997 and the relative viability (NCI-H1666; first compound 1.265 µM) was 0.962. It also gave a relative viability (NCI-H1666; first compound 4 µM) of 0.925, a relative viability (NCI-H322M; first compound 0.04 µM) of 1 and a relative viability (NCI-H322M; first compound 0.1265 µM) of 0.974. For the same compound, the relative viability (NCI-H322M; first compound 0.4 µM) was 1.03, the relative viability (NCI-H322M; first compound 1.265 µM) was 0.878 and the relative viability (NCI-H322M; first compound 4 µM) was 0.896. The relative viability (NCI-H2085; first compound 0.04 µM) was 1.07, the relative viability (NCI-H2085; first compound 0.1265 µM) was 0.879 and the relative viability (NCI-H2085; first compound 0.4 µM) was 0.854. For the same compound, the relative viability (NCI-H2085; first compound 1.265 µM) was 0.996, the relative viability (NCI-H2085; first compound 4 µM) was 0.818 and the relative viability (UMC-11; first compound 0.04 µM) was 1.12. It also gave a relative viability (UMC-11; first compound 0.1265 µM) of 0.94, a relative viability (UMC-11; first compound 0.4 µM) of 0.916 and a relative viability (UMC-11; first compound 1.265 µM) of 0.94. The relative viability (UMC-11; first compound 4 µM) was 1.02, the relative viability (EMC-BAC-2; first compound 0.04 µM) was 0.826 and the relative viability (EMC-BAC-2; first compound 0.1265 µM) was 1.01. For the same compound, the relative viability (EMC-BAC-2; first compound 0.4 µM) was 1.09, the relative viability (EMC-BAC-2; first compound 1.265 µM) was 0.919 and the relative viability (EMC-BAC-2; first compound 4 µM) was 1.02. The relative viability (HCC-78; first compound 0.04 µM) was 0.531, the relative viability (HCC-78; first compound 0.1265 µM) was 0.551 and the relative viability (HCC-78; first compound 0.4 µM) was 0.535. It also gave a relative viability (HCC-78; first compound 1.265 µM) of 0.503, a relative viability (HCC-78; first compound 4 µM) of 0.47 and a relative viability (NCI-H1755; first compound 0.04 µM) of 0.88. For the same compound, the relative viability (NCI-H1755; first compound 0.1265 µM) was 0.964, the relative viability (NCI-H1755; first compound 0.4 µM) was 0.954 and the relative viability (NCI-H1755; first compound 1.265 µM) was 0.905. For the same compound, the relative viability (NCI-H1755; first compound 4 µM) was 0.846, the relative viability (NCI-H2023; first compound 0.04 µM) was 0.881 and the relative viability (NCI-H2023; first compound 0.1265 µM) was 0.974. It also gave a relative viability (NCI-H2023; first compound 0.4 µM) of 1.04, a relative viability (NCI-H2023; first compound 1.265 µM) of 0.753 and a relative viability (NCI-H2023; first compound 4 µM) of 1.04. For the same compound, the relative viability (NCI-H1975; first compound 0.04 µM) was 0.968, the relative viability (NCI-H1975; first compound 0.1265 µM) was 0.885 and the relative viability (NCI-H1975; first compound 0.4 µM) was 0.953. For the same compound, the relative viability (NCI-H1975; first compound 1.265 µM) was 0.866, the relative viability (NCI-H1975; first compound 4 µM) was 0.832 and the relative viability (EPLC-272H; first compound 0.04 µM) was 0.645. The relative viability (EPLC-272H; first compound 0.1265 µM) was 0.711, the relative viability (EPLC-272H; first compound 0.4 µM) was 0.763 and the relative viability (EPLC-272H; first compound 1.265 µM) was 0.669. For the same compound, the relative viability (EPLC-272H; first compound 4 µM) was 0.841, the relative viability (LXF-289; first compound 0.04 µM) was 0.97 and the relative viability (LXF-289; first compound 0.1265 µM) was 0.966. The relative viability (LXF-289; first compound 0.4 µM) was 0.98, the relative viability (LXF-289; first compound 1.265 µM) was 0.945 and the relative viability (LXF-289; first compound 4 µM) was 0.931. The relative viability (NCI-H3122; first compound 0.04 µM) was 0.997, the relative viability (NCI-H3122; first compound 0.1265 µM) was 0.978 and the relative viability (NCI-H3122; first compound 0.4 µM) was 0.939. It also gave a relative viability (NCI-H3122; first compound 1.265 µM) of 0.897, a relative viability (NCI-H3122; first compound 4 µM) of 0.954 and a relative viability (ChaGo-K-1; first compound 0.04 µM) of 1. For the same compound, the relative viability (ChaGo-K-1; first compound 0.1265 µM) was 0.916, the relative viability (ChaGo-K-1; first compound 0.4 µM) was 0.976 and the relative viability (ChaGo-K-1; first compound 1.265 µM) was 0.881. It also gave a relative viability (ChaGo-K-1; first compound 4 µM) of 0.893, a relative viability (NCI-H358; first compound 0.04 µM) of 1.15 and a relative viability (NCI-H358; first compound 0.1265 µM) of 0.568. It also gave a relative viability (NCI-H358; first compound 0.4 µM) of 0.533, a relative viability (NCI-H358; first compound 1.265 µM) of 0.718 and a relative viability (NCI-H358; first compound 4 µM) of 0.621. It also gave a relative viability (NCI-H1993; first compound 0.04 µM) of 0.739, a relative viability (NCI-H1993; first compound 0.1265 µM) of 0.745 and a relative viability (NCI-H1993; first compound 0.4 µM) of 0.806. It also gave a relative viability (NCI-H1993; first compound 1.265 µM) of 0.739, a relative viability (NCI-H1993; first compound 4 µM) of 0.75 and a relative viability (CAL-12T; first compound 0.04 µM) of 1.07. For the same compound, the relative viability (CAL-12T; first compound 0.1265 µM) was 1.16, the relative viability (CAL-12T; first compound 0.4 µM) was 1.05 and the relative viability (CAL-12T; first compound 1.265 µM) was 1.04. It also gave a relative viability (CAL-12T; first compound 4 µM) of 1.05, a relative viability (ABC-1; first compound 0.04 µM) of 1.32 and a relative viability (ABC-1; first compound 0.1265 µM) of 1.11. For the same compound, the relative viability (ABC-1; first compound 1.265 µM) was 1.18, the relative viability (ABC-1; first compound 4 µM) was 0.989 and the relative viability (NCI-H1915; first compound 0.04 µM) was 1.09. For the same compound, the relative viability (NCI-H1915; first compound 0.1265 µM) was 1.04, the relative viability (NCI-H1915; first compound 0.4 µM) was 1.11 and the relative viability (NCI-H1915; first compound 1.265 µM) was 1.05. The relative viability (NCI-H1915; first compound 4 µM) was 1.13, the relative viability (HOP-62; first compound 0.04 µM) was 1.16 and the relative viability (HOP-62; first compound 0.1265 µM) was 1.07. For the same compound, the relative viability (HOP-62; first compound 0.4 µM) was 1.13, the relative viability (HOP-62; first compound 1.265 µM) was 1.01 and the relative viability (HOP-62; first compound 4 µM) was 1.12. The relative viability (COR-L 105; first compound 0.04 µM) was 0.885, the relative viability (COR-L 105; first compound 0.1265 µM) was 1.23 and the relative viability (COR-L 105; first compound 0.4 µM) was 1.24. The relative viability (COR-L 105; first compound 1.265 µM) was 0.785, the relative viability (COR-L 105; first compound 4 µM) was 1.12 and the relative viability (NCI-H441; first compound 0.04 µM) was 0.994. For the same compound, the relative viability (NCI-H441; first compound 0.1265 µM) was 0.977, the relative viability (NCI-H441; first compound 0.4 µM) was 1.15 and the relative viability (NCI-H441; first compound 1.265 µM) was 0.881. The relative viability (NCI-H441; first compound 4 µM) was 0.893, the relative viability (HCC-15; first compound 0.04 µM) was 1 and the relative viability (HCC-15; first compound 0.1265 µM) was 1.06. The relative viability (HCC-15; first compound 0.4 µM) was 1.02, the relative viability (HCC-15; first compound 1.265 µM) was 0.996 and the relative viability (HCC-15; first compound 4 µM) was 1.03.
